Data reported in PubChem BioAssay AID2060499 (Molecular Pharmacology Branch, DTP, NCI, 2025).
pIC50: −log10 of the molar value.

Test system: 777334-354-R2-J4-PDC tumor spheroids with HUVEC/MSC, viability
Test: Anticancer human tumor 777334-354-R2-J4-PDC patient-derived pancreatic adenocarcinoma cell line growth inhibition [GQUAD]
Details: for pIC50: curve of first compound; for viability, T/C: stronger effect = lower value; active = viability on the fitted dose curve at most 10% of control; inactive = the rest
In short: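 Viability of tumor cells grown as complex spheroids with endothelial and stromal cells, exposed to drug combinations. Top concentration at or near clinical Cmax (else 10 microM), diluted in half-log increments.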

[1] = second compound 0.0316 µM, first compound 0.0316 µM
[2] = second compound 0.0316 µM, first compound 0.1 µM
[3] = second compound 0.0316 µM, first compound 0.316 µM
[4] = second compound 0.0316 µM, first compound 1 µM
[5] = second compound 0.0316 µM, first compound 3.16 µM
[6] = second compound 0.0316 µM, first compound 10 µM
[7] = second compound 0.1 µM, first compound 0.0316 µM
[8] = second compound 0.1 µM, first compound 0.1 µM
[9] = second compound 0.1 µM, first compound 0.316 µM
[10] = second compound 0.1 µM, first compound 1 µM
[11] = second compound 0.1 µM, first compound 3.16 µM
[12] = second compound 0.1 µM, first compound 10 µM
[13] = second compound 0.316 µM, first compound 0.0316 µM
[14] = second compound 0.316 µM, first compound 0.1 µM
[15] = second compound 0.316 µM, first compound 0.316 µM
[16] = second compound 0.316 µM, first compound 1 µM
[17] = second compound 0.316 µM, first compound 3.16 µM
[18] = second compound 0.316 µM, first compound 10 µM
[19] = second compound 1 µM, first compound 0.0316 µM
[20] = second compound 1 µM, first compound 0.1 µM
[21] = second compound 1 µM, first compound 0.316 µM
[22] = second compound 1 µM, first compound 1 µM
[23] = second compound 1 µM, first compound 3.16 µM
[24] = second compound 1 µM, first compound 10 µM
[25] = second compound 3.16 µM, first compound 0.0316 µM
[26] = second compound 3.16 µM, first compound 0.1 µM
[27] = second compound 3.16 µM, first compound 0.316 µM
[28] = second compound 3.16 µM, first compound 1 µM
[29] = second compound 3.16 µM, first compound 3.16 µM
[30] = second compound 3.16 µM, first compound 10 µM
[31] = second compound 10 µM, first compound 0.0316 µM
[32] = second compound 10 µM, first compound 0.1 µM
[33] = second compound 10 µM, first compound 0.316 µM
[34] = second compound 10 µM, first compound 1 µM
[35] = second compound 10 µM, first compound 3.16 µM
[36] = second compound 10 µM, first compound 10 µM
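Note: spheroids exposed to compounds for 7 days before readout.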

CC(C)n1c(=O)n(C)c2cnc3cc(F)c(-c4ccc(OCCCN5CCCCC5)nc4)cc3c21 + Cc1[nH]c2ccc(F)cc2c1-c1nc2c3cccnc3c3ncccc3c2[nH]1
< 5.00: pIC50 (second compound 0.0316 µM) | pIC50 (second compound 0.1 µM) | pIC50 (second compound 0.316 µM) | pIC50 (second compound 1 µM)
> 7.50: pIC50 (second compound 3.16 µM) | pIC50 (second compound 10 µM)
inactive: viability, T/C [1] 106% | viability, T/C [2] 108% | viability, T/C [3] 113% | viability, T/C [4] 115% | viability, T/C [5] 115% | viability, T/C [6] 96% | viability, T/C [7] 105% | viability, T/C [8] 89.5% | viability, T/C [9] 131% | viability, T/C [10] 103% | viability, T/C [11] 118% | viability, T/C [12] 98% | viability, T/C [13] 101% | viability, T/C [14] 99.5% | viability, T/C [15] 90.3% | viability, T/C [16] 110% | viability, T/C [17] 99.1% | viability, T/C [18] 93.5% | viability, T/C [19] 90.8% | viability, T/C [20] 84.7% | viability, T/C [21] 90.6% | viability, T/C [22] 101% | viability, T/C [23] 93.8% | viability, T/C [24] 70.8% | viability, T/C [25] 30.8% | viability, T/C [26] 50.4% | viability, T/C [27] 40% | viability, T/C [28] 33.1% | viability, T/C [29] 28.5% | viability, T/C [30] 19.9% | viability, T/C [31] 28.7% | viability, T/C [32] 25.2% | viability, T/C [33] 41.9% | viability, T/C [34] 28.4% | viability, T/C [35] 27.1% | viability, T/C [36] 13.5%

CC1COCCN1c1cc(-c2ccnn2C)c2ccnc(-c3ccn[nH]3)c2n1 (stereo unspecified) + Cc1[nH]c2ccc(F)cc2c1-c1nc2c3cccnc3c3ncccc3c2[nH]1
6.05: pIC50 (second compound 0.0316 µM)
6.32: pIC50 (second compound 0.316 µM) | pIC50 (second compound 1 µM)
active: viability, T/C [29] 8.41% | viability, T/C [30] 8.24%
inactive: viability, T/C [1] 91.3% | viability, T/C [2] 74.2% | viability, T/C [3] 62.4% | viability, T/C [4] 44.4% | viability, T/C [5] 44% | viability, T/C [6] 31.1% | viability, T/C [7] 93.7% | viability, T/C [8] 67.1% | viability, T/C [9] 63.5% | viability, T/C [10] 46.4% | viability, T/C [11] 41.5% | viability, T/C [12] 29.4% | viability, T/C [13] 90.9% | viability, T/C [14] 79.6% | viability, T/C [15] 48.7% | viability, T/C [16] 46.6% | viability, T/C [17] 39.5% | viability, T/C [18] 29.7% | viability, T/C [19] 68.7% | viability, T/C [20] 65.2% | viability, T/C [21] 53.2% | viability, T/C [22] 39.9% | viability, T/C [23] 35.6% | viability, T/C [24] 19.1% | viability, T/C [25] 26.4% | viability, T/C [26] 23.9% | viability, T/C [27] 18.9% | viability, T/C [28] 11.1% | viability, T/C [31] 33.5% | viability, T/C [32] 19.5% | viability, T/C [33] 14.9% | viability, T/C [34] 11.7% | viability, T/C [35] 12.7% | viability, T/C [36] 11.6%
> 7.50: pIC50 (second compound 3.16 µM) | pIC50 (second compound 10 µM)
6.08: pIC50 (second compound 0.1 µM)

CC1COCCN1c1cc(C2(O)CC3CCC(C2)O3)c2cnn(-c3ccn[nH]3)c2n1 (stereo unspecified) + Cc1[nH]c2ccc(F)cc2c1-c1nc2c3cccnc3c3ncccc3c2[nH]1
6.42: pIC50 (second compound 0.316 µM)
active: viability, T/C [28] 8.38% | viability, T/C [29] 6.83% | viability, T/C [30] 4.02% | viability, T/C [34] 7.12% | viability, T/C [35] 7.7% | viability, T/C [36] 4.01%
> 7.50: pIC50 (second compound 3.16 µM) | pIC50 (second compound 10 µM)
6.52: pIC50 (second compound 0.0316 µM)
inactive: viability, T/C [1] 93.8% | viability, T/C [2] 59.3% | viability, T/C [3] 52.8% | viability, T/C [4] 38.3% | viability, T/C [5] 33.2% | viability, T/C [6] 19% | viability, T/C [7] 98.7% | viability, T/C [8] 66.1% | viability, T/C [9] 56% | viability, T/C [10] 36.5% | viability, T/C [11] 31.9% | viability, T/C [12] 23% | viability, T/C [13] 84.6% | viability, T/C [14] 67.1% | viability, T/C [15] 50.6% | viability, T/C [16] 39.8% | viability, T/C [17] 31.4% | viability, T/C [18] 20.8% | viability, T/C [19] 66.8% | viability, T/C [20] 56% | viability, T/C [21] 44.9% | viability, T/C [22] 31.6% | viability, T/C [23] 21.3% | viability, T/C [24] 16.9% | viability, T/C [25] 25.2% | viability, T/C [26] 18.8% | viability, T/C [27] 11.6% | viability, T/C [31] 21.8% | viability, T/C [32] 16.9% | viability, T/C [33] 12.8%
6.44: pIC50 (second compound 0.1 µM)
6.73: pIC50 (second compound 1 µM)
